Measurements: ChEMBL document CHEMBL5244234, “Janus kinases (JAKs): The efficient therapeutic targets for autoimmune diseases and myeloproliferative disorders” (Eur J Med Chem, 2020)

Columns and labels:
[1] = molecular target: Signal transducer and activator of transcription 3 (Homo sapiens, UniProt P40763); test: Inhibition of IL6-stimulated STAT3 signalling in human CD4+ T cells; type: cell-based, T cell
Homo sapiens [2] = species: Homo sapiens; test: Selectivity index, ratio of IC50 for inhibition of human JAK3 kinase domain to IC50 for inhibition of human JAK2 kinase domain incubated for 1 hrs in the presence of ATP by spectrophotometric analysis
Homo sapiens [3] = species: Homo sapiens; test: Selectivity index, ratio of IC50 for inhibition of human TYK2 kinase domain to IC50 for inhibition of human JAK2 kinase domain incubated for 1 hrs in the presence of ATP by spectrophotometric analysis
[4] = molecular target: T1, Non-receptor tyrosine-protein kinase TYK2 (Homo sapiens, UniProt P29597); test: Inhibition of human TYK2 kinase domain incubated for 1 hrs in the presence of ATP by spectrophotometric analysis
BaF3 [5] = test: Antiproliferative activity against mouse BaF3 cells harboring JAK2 V617F mutation incubated for 72 hrs by MTT assay; type: functional, cell-based; conditions: BaF3, 72 h
Homo sapiens [6] = species: Homo sapiens; test: Selectivity index, ratio of IC50 for inhibition of human JAK1 kinase domain to IC50 for inhibition of human JAK2 kinase domain incubated for 1 hrs in the presence of ATP by spectrophotometric analysis
BaF3 [7] = test: Antiproliferative activity against mouse BaF3 cells expressing TEL fused JAK2 incubated for 72 hrs by MTT assay; type: functional, cell-based; conditions: BaF3, 72 h
[8] = molecular target: T2, Tyrosine-protein kinase JAK2 (Homo sapiens, UniProt O60674); test: Inhibition of human JAK2 kinase domain incubated for 1 hrs in the presence of ATP by spectrophotometric analysis
[9] = molecular target: T3, Tyrosine-protein kinase JAK3 (Homo sapiens, UniProt P52333); test: Inhibition of human JAK3 kinase domain incubated for 1 hrs in the presence of ATP by spectrophotometric analysis
T3 sequence (P52333 whole entry): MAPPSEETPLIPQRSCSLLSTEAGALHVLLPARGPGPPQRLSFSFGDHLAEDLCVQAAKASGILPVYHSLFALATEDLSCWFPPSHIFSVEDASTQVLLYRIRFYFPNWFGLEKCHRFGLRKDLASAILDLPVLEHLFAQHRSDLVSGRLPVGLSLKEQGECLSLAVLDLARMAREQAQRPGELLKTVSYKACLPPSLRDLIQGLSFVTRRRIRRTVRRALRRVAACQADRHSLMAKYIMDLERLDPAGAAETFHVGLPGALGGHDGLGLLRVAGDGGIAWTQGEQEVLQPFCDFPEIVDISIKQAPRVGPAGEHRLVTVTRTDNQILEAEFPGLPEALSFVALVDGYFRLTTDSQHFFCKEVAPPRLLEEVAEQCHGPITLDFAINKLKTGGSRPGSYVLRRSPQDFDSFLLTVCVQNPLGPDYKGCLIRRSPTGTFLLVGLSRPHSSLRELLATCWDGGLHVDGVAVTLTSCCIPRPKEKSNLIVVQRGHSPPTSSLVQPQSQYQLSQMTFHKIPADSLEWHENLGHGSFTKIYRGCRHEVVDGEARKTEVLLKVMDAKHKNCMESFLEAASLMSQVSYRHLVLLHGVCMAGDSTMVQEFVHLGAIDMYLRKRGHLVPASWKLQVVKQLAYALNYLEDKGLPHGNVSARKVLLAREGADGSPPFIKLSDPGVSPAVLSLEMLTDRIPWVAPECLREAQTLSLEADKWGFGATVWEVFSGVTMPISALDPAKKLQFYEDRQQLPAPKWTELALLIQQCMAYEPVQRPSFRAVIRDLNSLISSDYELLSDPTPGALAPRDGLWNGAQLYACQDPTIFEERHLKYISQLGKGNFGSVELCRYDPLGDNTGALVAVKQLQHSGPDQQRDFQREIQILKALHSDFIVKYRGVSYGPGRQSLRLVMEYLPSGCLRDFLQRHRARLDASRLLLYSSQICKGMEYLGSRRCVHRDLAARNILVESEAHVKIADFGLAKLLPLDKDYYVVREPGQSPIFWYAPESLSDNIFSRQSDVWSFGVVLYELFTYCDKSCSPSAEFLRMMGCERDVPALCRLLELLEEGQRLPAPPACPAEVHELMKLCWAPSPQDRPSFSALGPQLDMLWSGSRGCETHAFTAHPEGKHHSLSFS

[10] = molecular target: T4, Tyrosine-protein kinase JAK1 (Homo sapiens, UniProt P23458); test: Inhibition of human JAK1 kinase domain incubated for 1 hrs in the presence of ATP by spectrophotometric analysis
U-266 = test: Antiproliferative activity against human U266B1 cells assessed as inhibition of cell proliferation; type: functional, cell-based
BaF3 [11] = test: Inhibition of cell proliferation in mouse BaF3 cells expressing JAK2 V617F mutant; type: toxicity, cell-based
BaF3 [12] = test: Inhibition of cell proliferation in IL-3 stimulated mouse BaF3 cells expressing wild-type JAK2; type: toxicity, cell-based
[13] = molecular target: T3, Tyrosine-protein kinase JAK3; test: Inhibition of JAK3 (unknown origin) by Lanthascreen kinase assay
[14] = molecular target: T1, Non-receptor tyrosine-protein kinase TYK2; test: Inhibition of TYK2 (unknown origin)
[15] = Inhibition of STAT5 phosphorylation in mouse BaF3 cells expressing JAK2 V617F mutant incubated for 5 hrs by Alphascreen SureFire assay; type: cell-based; conditions: BaF3, 5 h
[16] = molecular target: Tyrosine-protein kinase JAK2 (Mus musculus, UniProt Q62120); test: Inhibition of IL-3 stimulated wild type JAK2-mediated signalling in mouse BaF3 cells preincubated with compound for 5 hrs followed by IL-3 stimulation and measured after 20 mins by Alphascreen SureFire assay; type: cell-based
[17] = molecular target: T3, Tyrosine-protein kinase JAK3; test: Inhibition of recombinant human JAK3 (781 to 1124 residues)
[18] = molecular target: T1, Non-receptor tyrosine-protein kinase TYK2; test: Inhibition of recombinant human TYK2 (870 to 1187 residues)
Rattus norvegicus [19] = test: Antiarthritic activity in CFA-induced Lewis rat assessed as increase in hind paw volume at 1 mg/kg administered for 2 weeks by plethysmometer relative to control; type: functional
Rattus norvegicus [20] = test: Antiarthritic activity in CFA-induced Lewis rat assessed as increase in hind paw volume at 3 to 10 mg/kg administered for 2 weeks by plethysmometer relative to control; type: functional; conditions: dose 3-10 mg/kg
HCT-116 [21] = test: Antitumor activity against human HCT-116 cells xenografted in Balb/c mouse assessed as tumor growth inhibition at 15 mg/kg relative to control; type: functional; conditions: read-out: TGI
HCT-116 [22] = test: Antitumor activity against human HCT-116 cells xenografted in Balb/c mouse assessed as tumor growth inhibition at 20 mg/kg relative to control; type: functional; conditions: read-out: TGI
[23] = molecular target: T4, Tyrosine-protein kinase JAK1; test: Inhibition of JAK1 (unknown origin)
[24] = molecular target: T3, Tyrosine-protein kinase JAK3; test: Inhibition of JAK3 (unknown origin)
Homo sapiens [25] = species: Homo sapiens; test: Selectivity index, ratio of IC50 for inhibition of JAK2 (unknown origin) to IC50 for inhibition of JAK1 (unknown origin)
[26] = molecular target: T2, Tyrosine-protein kinase JAK2; test: Inhibition of JAK2 (unknown origin)
Homo sapiens [27] = species: Homo sapiens; test: Selectivity index, ratio of IC50 for inhibition of JAK3 (unknown origin) to IC50 for inhibition of JAK1 (unknown origin)
Homo sapiens [28] = species: Homo sapiens; test: Selectivity index, ratio of IC50 for inhibition of TYK2 (unknown origin) to IC50 for inhibition of JAK1 (unknown origin)
BaF3 [29] = test: Antiproliferative activity against mouse BaF3 cells harboring JAK2 V617F mutant assessed as inhibition of cell proliferation incubated for 72 hrs by XTT assay; type: toxicity, cell-based; conditions: BaF3, 72 h
HEL = test: cells; conditions: Homo sapiens, 72 h
[30] = Antiproliferative activity against mouse BaF3 cells assessed as inhibition of cell proliferation incubated for 72 hrs by XTT assay; type: toxicity, cell-based
[31] = molecular target: T2, Tyrosine-protein kinase JAK2; test: Competitive inhibition of JAK2 (unknown origin) in the presence of ATP
[32] = molecular target: T4, Tyrosine-protein kinase JAK1; test: Competitive inhibition of JAK1 (unknown origin) in the presence of ATP
[33] = molecular target: T2, Tyrosine-protein kinase JAK2; test: Inhibition of JAK2 (unknown origin) by Lanthascreen kinase assay
[34] = molecular target: Proto-oncogene tyrosine-protein kinase receptor Ret (Homo sapiens, UniProt P07949); test: Inhibition of RET (unknown origin)
[35] = Inhibition of IL-2 stimulated human T cell proliferation; type: toxicity, cell-based
[36] = molecular target: T4, Tyrosine-protein kinase JAK1; test: Inhibition of JAK1 (unknown origin) assessed as inhibition constant
[37] = Inhibition of T cell proliferation in Balb/c mouse spleenocytes by MLR assay; type: toxicity, cell-based; conditions: Splenocyte
[38] = Inhibition of T cell proliferation in CBA mouse spleenocytes by MLR assay; type: toxicity, cell-based; conditions: Splenocyte
[39] = Inhibition of STAT5 phosphorylation in IL-2 stimulated mouse HT-2 cells; type: cell-based; conditions: HT2
B cell = test: Inhibition of cell proliferation in CD40L/IL-4-induced human B cells; type: toxicity, cell-based

T1 sequence (P29597 whole entry, the tested form may be a part): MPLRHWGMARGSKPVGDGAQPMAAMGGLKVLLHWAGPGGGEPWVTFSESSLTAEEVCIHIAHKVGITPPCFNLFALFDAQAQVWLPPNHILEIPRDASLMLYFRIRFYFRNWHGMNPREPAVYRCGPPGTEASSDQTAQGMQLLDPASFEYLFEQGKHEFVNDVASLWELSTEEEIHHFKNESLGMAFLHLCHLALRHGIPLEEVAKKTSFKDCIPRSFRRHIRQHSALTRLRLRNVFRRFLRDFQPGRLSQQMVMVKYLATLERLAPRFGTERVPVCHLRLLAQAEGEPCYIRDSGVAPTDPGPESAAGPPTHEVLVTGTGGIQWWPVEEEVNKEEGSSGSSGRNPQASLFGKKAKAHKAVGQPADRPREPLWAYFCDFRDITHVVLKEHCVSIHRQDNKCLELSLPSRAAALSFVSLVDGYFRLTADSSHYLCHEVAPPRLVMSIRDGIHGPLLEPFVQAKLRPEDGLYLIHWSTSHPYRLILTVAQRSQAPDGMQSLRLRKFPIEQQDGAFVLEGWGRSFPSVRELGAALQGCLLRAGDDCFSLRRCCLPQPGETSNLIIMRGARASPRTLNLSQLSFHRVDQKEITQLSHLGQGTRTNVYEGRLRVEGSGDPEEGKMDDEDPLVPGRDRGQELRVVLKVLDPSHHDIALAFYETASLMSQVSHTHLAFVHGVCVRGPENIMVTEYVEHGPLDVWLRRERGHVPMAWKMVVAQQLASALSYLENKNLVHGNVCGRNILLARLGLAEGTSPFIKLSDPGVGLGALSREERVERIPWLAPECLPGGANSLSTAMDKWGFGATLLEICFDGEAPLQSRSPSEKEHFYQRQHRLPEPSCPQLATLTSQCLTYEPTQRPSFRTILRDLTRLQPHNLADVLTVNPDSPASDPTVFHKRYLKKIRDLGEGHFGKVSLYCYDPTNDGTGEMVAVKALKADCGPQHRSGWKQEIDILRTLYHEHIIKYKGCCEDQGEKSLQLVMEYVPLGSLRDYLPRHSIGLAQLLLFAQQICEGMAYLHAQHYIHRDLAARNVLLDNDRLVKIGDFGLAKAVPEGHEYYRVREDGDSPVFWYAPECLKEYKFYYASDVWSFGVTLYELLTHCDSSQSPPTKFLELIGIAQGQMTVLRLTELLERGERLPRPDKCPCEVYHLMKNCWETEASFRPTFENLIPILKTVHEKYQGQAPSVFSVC
T4 sequence (P23458 whole entry, the tested form may be a part): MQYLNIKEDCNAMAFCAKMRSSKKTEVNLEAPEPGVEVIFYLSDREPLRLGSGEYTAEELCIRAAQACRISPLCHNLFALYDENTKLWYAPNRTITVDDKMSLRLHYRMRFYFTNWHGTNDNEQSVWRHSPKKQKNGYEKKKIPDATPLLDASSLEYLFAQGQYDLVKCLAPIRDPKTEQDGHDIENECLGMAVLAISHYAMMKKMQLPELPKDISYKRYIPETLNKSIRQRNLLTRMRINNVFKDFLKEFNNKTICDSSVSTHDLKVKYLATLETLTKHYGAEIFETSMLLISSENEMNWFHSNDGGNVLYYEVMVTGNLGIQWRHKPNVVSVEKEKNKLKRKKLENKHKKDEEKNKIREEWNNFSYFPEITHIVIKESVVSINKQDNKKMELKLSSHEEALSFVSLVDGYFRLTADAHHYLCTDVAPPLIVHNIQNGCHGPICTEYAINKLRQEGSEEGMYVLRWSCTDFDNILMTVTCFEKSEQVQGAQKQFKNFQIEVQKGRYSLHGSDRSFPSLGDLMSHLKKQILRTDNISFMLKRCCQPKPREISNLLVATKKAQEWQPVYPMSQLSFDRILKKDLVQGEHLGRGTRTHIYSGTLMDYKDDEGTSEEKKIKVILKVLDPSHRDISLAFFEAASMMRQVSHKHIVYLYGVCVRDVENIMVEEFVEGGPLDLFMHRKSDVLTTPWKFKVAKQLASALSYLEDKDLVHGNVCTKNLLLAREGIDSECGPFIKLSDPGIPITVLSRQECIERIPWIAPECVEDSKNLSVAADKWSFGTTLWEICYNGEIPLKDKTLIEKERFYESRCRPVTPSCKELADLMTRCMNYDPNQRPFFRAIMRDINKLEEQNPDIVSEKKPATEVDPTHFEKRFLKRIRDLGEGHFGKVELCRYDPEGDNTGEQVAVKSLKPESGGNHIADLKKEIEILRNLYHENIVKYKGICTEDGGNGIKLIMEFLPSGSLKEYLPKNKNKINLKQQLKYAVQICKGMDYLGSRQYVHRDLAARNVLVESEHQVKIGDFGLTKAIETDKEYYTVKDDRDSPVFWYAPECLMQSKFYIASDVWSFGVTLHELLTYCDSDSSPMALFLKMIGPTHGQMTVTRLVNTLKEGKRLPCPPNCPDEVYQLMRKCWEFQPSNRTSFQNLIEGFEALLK
T2 sequence (O60674 whole entry, the tested form may be a part): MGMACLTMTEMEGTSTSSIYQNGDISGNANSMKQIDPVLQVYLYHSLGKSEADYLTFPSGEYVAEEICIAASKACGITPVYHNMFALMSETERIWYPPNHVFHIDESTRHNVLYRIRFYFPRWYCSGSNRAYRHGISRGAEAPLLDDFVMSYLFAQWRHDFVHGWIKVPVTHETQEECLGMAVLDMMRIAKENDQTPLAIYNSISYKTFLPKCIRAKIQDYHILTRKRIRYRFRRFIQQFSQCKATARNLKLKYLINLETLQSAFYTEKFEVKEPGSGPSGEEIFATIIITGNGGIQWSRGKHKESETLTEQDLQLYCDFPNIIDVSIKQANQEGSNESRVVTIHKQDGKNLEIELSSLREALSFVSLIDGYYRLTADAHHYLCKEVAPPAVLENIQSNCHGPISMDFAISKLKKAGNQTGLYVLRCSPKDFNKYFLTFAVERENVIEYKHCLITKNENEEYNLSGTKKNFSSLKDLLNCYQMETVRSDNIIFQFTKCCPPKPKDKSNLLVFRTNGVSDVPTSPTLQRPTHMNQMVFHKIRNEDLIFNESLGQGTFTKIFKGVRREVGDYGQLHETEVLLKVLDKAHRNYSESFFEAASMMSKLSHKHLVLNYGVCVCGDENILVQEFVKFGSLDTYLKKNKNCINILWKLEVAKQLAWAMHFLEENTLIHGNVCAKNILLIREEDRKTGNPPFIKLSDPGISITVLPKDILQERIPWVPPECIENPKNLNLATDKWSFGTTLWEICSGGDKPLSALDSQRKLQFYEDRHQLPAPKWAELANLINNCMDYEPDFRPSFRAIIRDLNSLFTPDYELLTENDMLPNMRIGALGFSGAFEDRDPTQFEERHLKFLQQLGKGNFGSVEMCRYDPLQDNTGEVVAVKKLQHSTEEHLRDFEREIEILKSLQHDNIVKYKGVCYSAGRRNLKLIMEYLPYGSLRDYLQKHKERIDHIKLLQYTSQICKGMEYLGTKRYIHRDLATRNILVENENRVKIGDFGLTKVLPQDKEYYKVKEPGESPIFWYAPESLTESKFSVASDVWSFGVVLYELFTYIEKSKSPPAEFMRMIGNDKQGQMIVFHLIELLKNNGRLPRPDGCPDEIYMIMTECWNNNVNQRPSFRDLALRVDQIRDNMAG
Chain of Proto-oncogene tyrosine-protein kinase receptor Ret (P07949 whole entry): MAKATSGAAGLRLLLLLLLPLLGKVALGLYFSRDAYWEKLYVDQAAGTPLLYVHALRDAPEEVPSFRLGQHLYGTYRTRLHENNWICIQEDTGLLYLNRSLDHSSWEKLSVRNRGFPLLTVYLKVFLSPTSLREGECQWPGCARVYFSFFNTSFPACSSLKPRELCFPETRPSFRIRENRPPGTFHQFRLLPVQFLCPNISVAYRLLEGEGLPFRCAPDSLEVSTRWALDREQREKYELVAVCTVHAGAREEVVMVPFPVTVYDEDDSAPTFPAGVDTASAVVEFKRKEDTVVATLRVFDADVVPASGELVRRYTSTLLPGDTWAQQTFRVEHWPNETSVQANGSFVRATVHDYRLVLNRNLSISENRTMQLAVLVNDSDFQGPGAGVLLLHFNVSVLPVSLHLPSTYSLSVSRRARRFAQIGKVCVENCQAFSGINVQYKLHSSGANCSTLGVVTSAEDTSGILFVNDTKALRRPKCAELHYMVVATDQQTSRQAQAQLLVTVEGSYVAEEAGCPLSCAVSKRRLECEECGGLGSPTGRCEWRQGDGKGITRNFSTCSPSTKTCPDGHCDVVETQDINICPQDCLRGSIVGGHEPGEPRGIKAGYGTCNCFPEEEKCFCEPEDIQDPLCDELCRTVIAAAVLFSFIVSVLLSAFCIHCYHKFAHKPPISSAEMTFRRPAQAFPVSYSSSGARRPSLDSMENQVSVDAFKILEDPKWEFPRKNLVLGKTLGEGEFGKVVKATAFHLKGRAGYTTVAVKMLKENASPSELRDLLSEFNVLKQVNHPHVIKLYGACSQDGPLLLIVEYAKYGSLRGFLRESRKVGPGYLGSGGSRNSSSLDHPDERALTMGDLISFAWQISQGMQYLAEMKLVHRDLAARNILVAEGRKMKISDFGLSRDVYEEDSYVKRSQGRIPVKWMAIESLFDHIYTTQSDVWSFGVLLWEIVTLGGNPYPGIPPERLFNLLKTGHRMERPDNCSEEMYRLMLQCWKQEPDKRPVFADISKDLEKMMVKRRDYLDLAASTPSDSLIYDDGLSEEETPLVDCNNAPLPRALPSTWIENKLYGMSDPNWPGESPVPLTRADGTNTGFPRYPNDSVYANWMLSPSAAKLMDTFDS

CN(C)C(=O)/C(C#N)=C/c1ccc(-c2nc3cnc4[nH]ccc4c3n2C2CCCCC2)o1
IC50 [1]: 1000 nM

C[C@H](Nc1cc(-c2cnn(C)c2)cc(Nc2cnccn2)n1)c1ccc(F)cc1 [NS-018]
Ratio IC50 (Homo sapiens [2]): 54
Ratio IC50 (Homo sapiens [3]): 31
IC50 [4]: 22 nM
IC50 (BaF3 [5]): 11 nM
Ratio IC50 (Homo sapiens [6]): 46
IC50 (BaF3 [7]): 11 nM
IC50 [8]: 0.72 nM
IC50 [9]: 39 nM
IC50 [10]: 33 nM

CC(C)(C)c1nc2c3ccc(F)cc3c3c(=O)[nH]ccc3c2[nH]1
IC50 (U-266): 250 nM

Cc1cc(Nc2cc(CN3CCOCC3)c3nc(C)c(Cc4ccc(Cl)cc4F)n3n2)n[nH]1 [GANDOTINIB]
IC50 (BaF3 [11]): 55 nM
IC50 (BaF3 [12]): 1310 nM
IC50 [13]: 48 nM
IC50 [14]: 44 nM
IC50 [15]: 20 nM
IC50 [16]: 1180 nM

CNS(=O)(=O)C[C@H]1CC[C@H](N(C)c2ncnc3[nH]ccc23)CC1 [OCLACITINIB]
IC50 [17]: 99 nM
IC50 [18]: 84 nM

CCS(=O)(=O)N1CC(CC#N)(n2cc(-c3ncnc4[nH]ccc34)cn2)C1 [BARICITINIB]
Activity (Rattus norvegicus [19]): 50%
Activity (Rattus norvegicus [20]): >95%

O=C(Nc1c[nH]nc1-c1nc2ccc(CN3CCOCC3)cc2[nH]1)NC1CC1 [AT-9283]
inhibition in vivo at 15 mg/kg (HCT-116 [21]): 67%
inhibition in vivo at 20 mg/kg (HCT-116 [22]): 76%

N#CCC1(n2cc(-c3ncnc4[nH]ccc34)cn2)CN(C2CCN(C(=O)c3ccnc(C(F)(F)F)c3F)CC2)C1 [ITACITINIB]
IC50 [23]: 2 nM
IC50 [24]: 2000 nM
Ratio IC50 (Homo sapiens [25]): > 20
IC50 [14]: 795 nM
IC50 [26]: 63 nM
Ratio IC50 (Homo sapiens [27]): > 100
Ratio IC50 (Homo sapiens [28]): > 100

Cc1cnc(Nc2ccc(OCCN3CCCC3)cc2)nc1Nc1cccc(S(=O)(=O)NC(C)(C)C)c1 [FEDRATINIB]
IC50 (BaF3 [29]): 270 nM
IC50 (HEL): 305 nM
IC50 at 72 h [30]: 420 nM

CC1(C)CN(C(=O)c2ccc(-c3cccc4nc(NC(=O)C5CC5)nn34)cc2)C1 [SOLCITINIB]
IC50 [23]: 9.8 nM
IC50 [24]: 539 nM
Ratio IC50 (Homo sapiens [25]): 11
IC50 [14]: 225 nM
IC50 [26]: 108 nM
Ratio IC50 (Homo sapiens [27]): 55
Ratio IC50 (Homo sapiens [28]): 23

Cc1cc(Nc2nc(N[C@@H](C)c3ncc(F)cn3)ncc2Cl)n[nH]1 [AZD-1480]
IC50 [31]: 0.4 nM
IC50 [32]: 1.3 nM

Cc1cc(Nc2ccc3nc(C)n([C@@H]4CCc5ccc(F)cc54)c3c2)[nH]n1
IC50 [13]: 8 nM
IC50 [33]: 2 nM

Cc1cnc(Nc2ccc(N3CCN(C)CC3)cc2)nc1Nc1cccc(S(=O)(=O)NC(C)(C)C)c1
IC50 [34]: 17 nM

CC[C@@](C)(Nc1ccnc(-c2c[nH]c3ncccc23)n1)C(=O)NCC(F)(F)F [DECERNOTINIB]
IC50 [35]: 50 nM
Ki [36]: 11 nM
IC50 [37]: 50 nM
IC50 [38]: 50 nM
IC50 [39]: 50 nM
IC50 (B cell): 50 nM
